Laboratory results as given in patent publication US20260191196A1, “COMPOSITIONS AND METHODS FOR IMPROVING SOIL MICROBIAL POPULATIONS” (SYNGENTA CROP PROTECTION AG, priority 2022, published 2026).

Assays:
soil bacterial community = assay: Plant associated soil microbiome: bacterial community by 16S rRNA gene amplicon sequencing; format: in vivo, tomato plants
Method: (§1) To detect microbial community modifications in the soil microbiome associated with the cyclobutrifluram treatment against root knot nematodes, PCR amplification and successive high-throughput sequencing of bacterial and fungal taxonomical marker genes (the small-subunit ribosomal RNA gene (16S) and the ribosomal internal transcribed spacers (ITS) respectively) were performed on plant-associated soil samples.
Bacterial ASVs were detected by 16SrRNA gene amplicon sequencing with taxonomy assignment at ASV level. The relative abundance in Control and Cyclobutrifluram treated samples and, when statistically significative (Deseq2, p=0.1), the relative abundance variation is reported in Table 1a, reporting bacterial ASVs detected by 16S rRNA gene amplicon sequencing with taxonomy assignment at ASV level. Here is reported the relative abundance in Control and Cyclobutrifluram treated samples and, when statistically significative (Deseq2, p=0.1), the relative abundance variation. Shown are the bacteria with an abundance of above 0.01%.

[1] = system: bacteria (16S) and fungi (ITS) communities; assay: Potato field trial: soil microbiome community and biodiversity; format: in vivo, potato (Solanum tuberculosum L.); details: locations A and B, T0-T3
Method: (§2) In this experiment, assuming that biodiversity can be measured by the taxonomic richness and abundance of each taxon, the differences between treatments are determined and their effect on populations and beneficial species over time is verified. This leads to testing two hypotheses. Firstly, there is an impact of cyclobutrifluram applications on microbial diversity. Secondly, the use of cyclobutrifluram improves beneficial microbial diversity over time. These hypotheses were tested in two potato farms in the USA.
(§3) The experiment was carried out in two potato (Solanum tuberculosum L.) fields located in two test locations in Louisiana, USA, described as locations A and B in Table 2. In each experimental field, three products were tested in an area of 10 m^2 (Table 3) and three replicates per product were established by complete block randomized. To evaluate the effects on the microbiome a “Check” plot (untreated) was established. In addition, fluopyram was employed as a comparative example. Fluopyram is a widely used fungicide and nematicide, and represents the industry standard herein.
(§4) To analyse the microbial biodiversity, three soil samples were taken per treatment and each sample consisted of soil collected from three different points within the plots. In this way, the effect of soil variability was minimized, since there were nine samples per treatment. […]
as §1, with “As set out above, to” for “To”, “treatment,” for “treatment against root knot nematodes,”, “samples. An exploratory data analysis was conducted to describe the microbial biodiversity and the behaviour of the percentage of the abundance of species under the evaluated factors. […]” for “samples.”

[2] = system: beneficial bacterial species; assay: Potato field trial: beneficial bacteria in soil (16S sequencing, differential abundance); format: in vivo, potato (Solanum tuberculosum L.)
Method: as §2, §3, §4
as §1, with “As set out above, to” for “To”, “treatment,” for “treatment against root knot nematodes,”, “samples. An exploratory data analysis was conducted to describe the microbial biodiversity and the behaviour of the percentage of the abundance of species under the evaluated factors. […]” for “samples.”

[3] = Cyclobutrifluram treated plant-associated soil

## O=C(N[C@@H]1CC[C@@H]1c1ccc(Cl)cc1Cl)c1cccnc1C(F)(F)F (racemic) [Cyclobutrifluram, cyclobutrifluram]
Soil bacterial community; 1st Acidobacteria-6 ASV (r9), Deseq2, p=0.1
  relative abundance variation vs Control, Acidobacteria-6 (ASV, Class): +0.050%
Soil bacterial community; 2nd Acidobacteria-6 ASV (r16), Deseq2, p=0.1
  relative abundance variation vs Control, Acidobacteria-6 (ASV, Class): +0.051%
Soil bacterial community; 3rd Acidobacteria-6 ASV (r18), Deseq2, p=0.1
  relative abundance variation vs Control, Acidobacteria-6 (ASV, Class): +0.027%
Soil bacterial community; 4th Acidobacteria-6 ASV (r19), Deseq2, p=0.1
  relative abundance variation vs Control, Acidobacteria-6 (ASV, Class): +0.028%
Soil bacterial community; 5th Acidobacteria-6 ASV (r22), Deseq2, p=0.1
  relative abundance variation vs Control, Acidobacteria-6 (ASV, Class): +0.071%
Soil bacterial community; 6th Acidobacteria-6 ASV (r24), Deseq2, p=0.1
  relative abundance variation vs Control, Acidobacteria-6 (ASV, Class): +0.030%
Soil bacterial community; 16S rRNA gene amplicon sequencing
  modifications in the bacterial diversity: no modifications
Soil bacterial community; [3]
  Relative abundance, Gaiella (ASV, Genus): 0.065%
  Relative abundance, Gemmatimonadetes (ASV, Class): 0.071%
  Relative abundance, Microlunatus (ASV, Genus): 0.032%
  Relative abundance, Myxococcales (ASV, Order): 0.033%
  Relative abundance, PK29 (ASV, Order): 0.021%
  Relative abundance, Planctomyces (ASV, Genus): 0.016%
  Relative abundance, Rhizobiales (ASV, Order): 0.025%
  Relative abundance, Streptosporangiaceae (ASV, Family): 0.020%
Soil bacterial community; Cyclobutrifluram treated plant-associated soil, 1st Acidobacteria-6 ASV (r9)
  Relative abundance, Acidobacteria-6 (ASV, Class): 0.050%
Soil bacterial community; Cyclobutrifluram treated plant-associated soil, 2nd Acidobacteria-6 ASV (r16)
  Relative abundance, Acidobacteria-6 (ASV, Class): 0.051%
Soil bacterial community; Cyclobutrifluram treated plant-associated soil, 3rd Acidobacteria-6 ASV (r18)
  Relative abundance, Acidobacteria-6 (ASV, Class): 0.027%
Soil bacterial community; Cyclobutrifluram treated plant-associated soil, 4th Acidobacteria-6 ASV (r19)
  Relative abundance, Acidobacteria-6 (ASV, Class): 0.028%
Soil bacterial community; Cyclobutrifluram treated plant-associated soil, 5th Acidobacteria-6 ASV (r22)
  Relative abundance, Acidobacteria-6 (ASV, Class): 0.084%
Soil bacterial community; Cyclobutrifluram treated plant-associated soil, 6th Acidobacteria-6 ASV (r24)
  Relative abundance, Acidobacteria-6 (ASV, Class): 0.030%
Soil bacterial community; Deseq2, p=0.1
  relative abundance variation vs Control, Gaiella (ASV, Genus): +0.065%
  relative abundance variation vs Control, Gemmatimonadetes (ASV, Class): +0.071%
  relative abundance variation vs Control, Microlunatus (ASV, Genus): +0.032%
  relative abundance variation vs Control, Myxococcales (ASV, Order): +0.033%
  relative abundance variation vs Control, PK29 (ASV, Order): +0.021%
  relative abundance variation vs Control, Planctomyces (ASV, Genus): +0.016%
  relative abundance variation vs Control, Rhizobiales (ASV, Order): +0.025%
  relative abundance variation vs Control, Streptosporangiaceae (ASV, Family): +0.020%
Soil bacterial community; differential abundance analysis, Cyclobutrifluram treatment
  modifications in the bacterial community at genus level: no significant modifications
Soil bacterial community; following cyclobutrifluram treatment
  relative abundance of the 14 ASVs found to be significantly changing: < 0.1%
[1]
  changes into the soil microbiome community: did not induce negative changes
[2]; T2 (60 days after treatment)
  abundance of Bacillus halmapalus and B. cereus: increased significantly
[2]; location A in T3 (120 days after application), location B in T2 (60 days after application)
  Sphingomonas species (S. sediminicola, S. japsi and S. daechungensis) abundance: tend to increase significantly
[2]; location A, 200 and 250 gai/ha
  Pseudomonas putida abundance: significant increase
